As usually defined, the IC50 is the midpoint of a concentration-inhibition curve. As a reminder, the IC90 is the concentration at which the effect reaches the 90% level.

What all share (assay type): cell-based
Experiment [1] relates to Leishmania amazonensis promastigotes. Put plainly: Anti-promastigotes assay (AlamarBlue, 72 h). The conditions noted are these: for IC50: 72 h, read-out: IC50: promastigote; for IC90: nonlinear regression of AlamarBlue curve, read-out: IC90 Leishmania amazonensis: promastigote. The protocol:
Experiments including in vitro activity assays of isolated compounds 1–3 were performed against the promastigote and amastigote stages of Leishmania amazonensis (MHOM/BR/77/LTB0016) and the epimastigote stage of Trypanosoma cruzi (Y strain). Promastigotes of L. amazonensis were cultured in Schneider’s medium (Sigma-Aldrich, St. Louis, MO, USA). Typanosoma cruzi strain Y was cultured in liver Infusion tryptose (LIT) medium.
The bioassay was performed using the AlamarBlue® method as previously described. Promastigotes of L. amazonensis were grown at 26 °C in RPMI 1640 modified medium (Gibco BRL Life Technologies Inc., Gaithersburg, MD, USA) and supplemented with 10% heat-inactivated fetal bovine serum (FBS). Cultures in the logarithmic phase were seeded in sterilized 96-well microtiter plates (Corning™, Corning, NY, USA) (10^6 parasites/ml) containing the samples dissolved in 1% DMSO at the suitable concentration to be tested in serial dilutions, and Leishmania medium (RPMI 1640) was used to reach a final volume of 200 μl per well; then 10% of AlamarBlue® was added to the entire plate. After an incubation of 72 h, the plate was checked visually using an inverted microscope, then analyzed using an Enspire multimode plate reader (PerkinElmer, Inc., Waltham, MA, USA) at excitation and emission wavelengths of 570 and 585 nm, respectively. Dose–response curves were plotted, and the concentration at which one half of the maximal inhibitory effect was obtained (IC50) was determined. The analyses were performed in triplicate.
Hoechst dye is a blue-fluorescent dye that stains condensed chromatin of apoptotic cells. To detect DNA condensation, the chromatin condensation/dead cell apoptosis kit was used (Invitrogen, Thermo Fisher Scientific, Waltham, MA, USA). Cells were incubated in the presence of the compounds to be tested at IC90. The IC90 values were determined using nonlinear regression of the AlamarBlue® curve. After 24 h of incubation, cells were harvested and resuspended in medium, following which 1 μl of Hoechst 33342 stock solution was added to parasites and incubated for 20 min. Results were analyzed by cell imaging using the Evos FL cell imaging system (Thermo Fisher Scientific). The experiments were repeated using a double-stain apoptosis detection kit (Hoechst 33342/PI; Thermo Fisher Scientific). […] A positive control was also tested: miltefosine (L. amazonensis) and benznidazole (T. cruzi).
A general note: Resazurin is reduced to fluorescent resorufin, in cell work by metabolically active cells.

The subject of experiment [2] is Trypanosoma cruzi epimastigotes (Y strain). Briefly: In vitro evaluation on T. cruzi epimastigotes (AlamarBlue, 72 h). The conditions noted are these: for IC50: 72 h, read-out: IC50: epimastigote; for IC90: nonlinear regression of AlamarBlue curve, read-out: IC90 Trypanosoma cruzi: epimastigote. The protocol:
Experiments including in vitro activity assays of isolated compounds 1–3 were performed against the promastigote and amastigote stages of Leishmania amazonensis (MHOM/BR/77/LTB0016) and the epimastigote stage of Trypanosoma cruzi (Y strain). Promastigotes of L. amazonensis were cultured in Schneider’s medium (Sigma-Aldrich, St. Louis, MO, USA). Typanosoma cruzi strain Y was cultured in liver Infusion tryptose (LIT) medium. The three molecules 1-3 were tested against epimastigotes of T. cruzi. Briefly, the molecules were dissolved in DMSO in 96-well plates and a serially diluted concentration was made in 100 μl of LIT medium supplemented with 10% heat-inactivated FBS. In all tests, a maximum of 1% DMSO was used to dissolve the highest dose of the compounds without inducing any effects on the parasites; epimastigotes in the logarithmic growth phase were then counted, adjusted to 5 × 10^5 cells/ml, distributed on the previous 96-well plate and incubated at 27 °C for 72 h. The plate was observed under an inverted microscope after 72 h of incubation and analyzed statistically as described for the leishmanicidal test. Hoechst dye is a blue-fluorescent dye that stains condensed chromatin of apoptotic cells. To detect DNA condensation, the chromatin condensation/dead cell apoptosis kit was used (Invitrogen, Thermo Fisher Scientific, Waltham, MA, USA). Cells were incubated in the presence of the compounds to be tested at IC90. The IC90 values were determined using nonlinear regression of the AlamarBlue® curve. After 24 h of incubation, cells were harvested and resuspended in medium, following which 1 μl of Hoechst 33342 stock solution was added to parasites and incubated for 20 min. Results were analyzed by cell imaging using the Evos FL cell imaging system (Thermo Fisher Scientific). The experiments were repeated using a double-stain apoptosis detection kit (Hoechst 33342/PI; Thermo Fisher Scientific). […] A positive control was also tested: miltefosine (L. amazonensis) and benznidazole (T. cruzi).

The test system of experiment [3] is Trypanosoma cruzi. Briefly: ATP level (CellTiter-Glo). The following applies: T. cruzi, IC90, 24 h, relative to negative control. The protocol: The CellTiter-Glo® luminescent cell viability assay (Promega, WI, USA) was used to quantify the adenosine triphosphate (ATP) concentration. Cells of the kinetoplastid strains (for both L. amazonensis [2 × 10^6 cells/ml] and T. cruzi [5 × 10^5cells/ml]) were incubated for 24 h with the compounds to be tested, at IC90 and 26 °C. After incubation, the cells were centrifuged and resuspended in 100 μl. To this volume, we added 100 μl of the reactive in white 96-well plates. After incubation, the luminescence signal was measured using the Enspire multimode plate reader. The decrease in ATP level was expressed as a percentage relative to the negative control. Miltefosine and benznidazole were tested as the positive control for L. amazonensis and T. cruzi, respectively.

Experiment [4] relates to Leishmania amazonensis promastigotes. Briefly: Plasma membrane permeability assay (SYTOX Green). The conditions noted are these: L. amazonensis, IC90, up to 6 h, compared to Triton X-100 (100%). The protocol: This assay was performed to evaluate the cell’s membrane permeability. Following the manufacturer’s recommendations, promastigotes of L. amazonensis and epimastigotes of T. cruzi were incubated in phosphate saline buffer in the presence of 1 μM of SYTOX® Green nucleic acid stain (Life Technologies, Waltham, MA, USA) and the IC90 of the different test compounds to be tested. Variation in fluorescence was measured every 15 min for 6 h using the Enspire multimode plate reader at excitation/emission wavelengths of 485/520. The percentage of relative permeabilization was calculated in reference to complete permeabilization realized by adding Triton X-100 (Sigma-Aldrich). In addition, both L. amazonensis and T. cruzi cells were incubated for 24 h with compounds 1–3, miltefosine and benznidazole, and images were captured using the Evos cell imaging system.
One of the detectable cellular events of a necrotic cell death is the rupture of the plasma membrane. This event can be detected by evaluating plasma membrane permeabilization. We performed the SYTOX Green dye assay to detect effect of compounds 1–3 on membrane permeability. This green-fluorescence dye has a high affinity for DNA. Triton X-100 was used as a positive control in light of its known effect to cause 100% membrane permeabilization. Values of fluorescence were measured each 15 min for 6 h.

As for `CC(C)=CCC[C@](C)(O)[C@@H]1CC[C@@H](C)[C@@H]2CC=C(C)[C@H]2[C@@H]1O` [Compound 1, pachydictyol C], in experiment [1], the IC50 came to 18.9 ± 5.28 µM and the IC90 was determined as 39.5 µM. For the same compound, in experiment [2], the IC50 came out at 13.1 ± 3.62 µM and the concentration for an effect of 90% (IC90) worked out at 75.4 µM. Moreover, the “decrease in ATP concentration” value in experiment [3] was more than 70%. In addition, the “percentage of membrane permeabilization” value in experiment [4] was less than 20%.

For `C=C1CC[C@@H]([C@@](C)(O)CCC=C(C)C)[C@@H](O)[C@@H]2C(C)=CC[C@@H]12` [Compound 2, dictyol E], in experiment [1], the half-maximal inhibitory concentration (IC50) worked out at 18.9 ± 0.42 µM and the IC90 amounted to 34.9 µM. For the same compound, in experiment [2], the IC50 came out at 18.3 ± 0.91 µM and the IC90 was 104 µM. Also, the “decrease in ATP concentration” value in experiment [3] is recorded as more than 95%. In addition, the “percentage of membrane permeabilization” value in experiment [4] was less than 20%.

In the case of `C=C(C)[C@H]1CC[C@]2(C)C[C@@H]3O[C@@]3(C)CC/C=C(\C)CC[C@@H]12` [Compound 3, 3,4-epoxy-7,18-dolabelladiene], the IC90 in experiment [1] is 74.9 µM. In experiment [2], the IC50 worked out at 35.3 ± 4.09 µM and the IC90 was 140 µM. Further, the “decrease in ATP concentration” value in experiment [3] is recorded as more than 95%. Also, in experiment [4], the “percentage of membrane permeabilization” value is listed as 35%.

The record behind these values is article PMC8042727, “Apoptosis-like cell death upon kinetoplastid induction by compounds isolated from the brown algae Dictyota spiralis” (Parasites & Vectors, 2021).
